Reference: patent US8420627B2, “Nasal, wound and skin formulations and methods for control of antibiotic-resistant staphylococci and other gram-positive bacteria” (priority 2009, dated 2013)
Entries after “also recorded” stand apart in the source; their conditions may differ. Like-named read-outs stand apart in the source and are kept apart here.

How the values were obtained:
Staphylococcus = conditions: cited from earlier work
[1] = system: Staphylococcus aureus MRSA, ATCC 33591; experiment: In vitro time-kill, one minute contact; format: cell-based; conditions: for CFU Recovered: Initial Count 5.6 × 10^6
Procedure: (§1) Dodecanol and glycerol monolaurate were diluted to 2,000 micrograms/mL and then diluted to the following concentrations: Dodecanol: 100 micrograms/mL and glycerol monolaurate: 250 micrograms/mL. Each challenge organism was confirmed by Gram stain and colony morphology. […] Log reductions and percent reductions presented in Tables VII and VIII below were calculated using the following equations: […]
The nasal formulation of the invention was tested against S. aureus MRSA, ATCC 33591. The contact time for the formulation with the bacteria was one minute, after which time, an 8.3 log reduction in bacterial count was observed.
The hand and body wash formulation of the invention was tested against S. aureus MRSA, ATCC 33591 and MDR Klebsiella pneumoniae ATCC CI-2004.

[2] = system: Staphylococcus aureus VISA, ATCC 700699; experiment: In vitro time-kill, one minute contact; format: cell-based; conditions: for CFU Recovered: Initial Count 5.6 × 10^6
Procedure: as §1

[3] = system: Enterococcus faecalis ATCC 51299; experiment: In vitro time-kill, one minute contact; format: cell-based; conditions: for CFU Recovered: Initial Count 5.6 × 10^6
Procedure: as §1

[4] = Irritation of mucous membranes; conditions: low concentrations (83 micrograms/mL)
[5] = system: Staphylococcus aureus MRSA, ATCC 33591; experiment: in vitro Minimum Inhibitory Concentration (MIC), growth/no growth in dilution tubes; format: cell-based; conditions: for Concentration of the component at which bactericidal activity is still maintained in the three-component combination: dodecanol, glycerol monolaurate and benzoic acid combined; for MIC of Glycerol monolaurate in two-component combination: combined with 40 μg/mL Dodecanol; on Growth or No Growth: key: Growth (+); No Growth (0)
Procedure: (§2) Now reported are in vitro Minimum Inhibitory Concentrations (MIC) for dodecanol against Staphylococcus aureus MRSA, ATCC 33591, Staphylococcus aureus VISA (Vancomycin intermediate sensitivity) ATCC 700699, and Enterococcus faecalis ATCC 51299 (formerly Streptococcus faecalis VREF (vancomycin resistant)). One tenth of a cc of dodecanol was diluted with 50 cc of polyethylene glycol 400 and 449.9 cc of sterilized deionized water, followed by five doubling dilutions. […] When combined with the other components of the formulation, a synergistic effect is seen such that bactericidal activity is still maintained even when the concentration of dodecanol is reduced to 20 μg/mL.
(§3) Now reported are in vitro Minimum Inhibitory Concentrations (MIC) for glycerol monolaurate against Staphylococcus aureus MRSA, ATCC 33591, Staphylococcus aureus VISA (Vancomycin intermediate sensitivity) ATCC 700699 and Vancomycin resistant Enterococcus faecalis ATCC 51299 (formerly Streptococcus faecalis VRSF). […] When combined with the other components of the formulation a synergistic effect is seen such that bactericidal activity is still maintained even when the concentration of glycerol monolaurate is reduced to 15 μg/mL.
The Minimum Inhibitory Concentration (MIC) for benzoic acid was determined against Staphylococcus aureus MRSA.
The MIC for dodecanol was experimentally determined to be about 83 micrograms/mL, the MIC for glycerol monolaurate was experimentally determined to be about 62.5 micrograms/mL, and the MIC for benzoic acid was experimentally determined to be about 1250 micrograms/mL. […] When a third component, the organic acid benzoic acid, was added to the formulation, the MICs for all three were much lower.

[6] = system: Staphylococcus aureus VISA (Vancomycin intermediate sensitivity) ATCC 700699; experiment: as above; format: cell-based; conditions: for MIC: Staphylococcus aureus, read-out: MIC (Minimum Inhibitory Concentration)
Procedure: as §2, §3

[7] = system: Vancomycin resistant Enterococcus faecalis ATCC 51299; experiment: as above; format: cell-based; on Growth or No Growth: key: Growth (+); No Growth (0)
Procedure: as §2, §3

S. aureus = conditions: Glycerol Esters of Fatty Acids; cited from earlier work
MRSA = experiment: Topical treatment of MRSA lesions in patients (case examples); format: in vivo, human; conditions: treatment before the formulation ointment; single patients
Description: EXAMPLES OF SUCCESSFUL TREATMENT OF MRSA LESIONS USING THE NOVEL FORMULATIONS OF THE INVENTION ARE PROVIDED BELOW

[8] = Glycerol Monolaurate at 250 μg/mL
Wherever Growth or No Growth is given: key: Growth (+); No Growth (0).

With `CCCCCCCCO` [C-8] as the compound, how does the “Effective Bactericidal Concentration of Primary Alcohols against Staphylococcus” value (“Effective Bactericidal Concentration” below) (Staphylococcus) read?
Its value is 800 Micrograms/mL.

With `CCCCCCCCCO` [C-9] as the compound, how does the “Effective Bactericidal Concentration” value (Staphylococcus) read?
Its value is 200 Micrograms/mL.

What does the source list for `CCCCCCCCCCCCO` [Dodecanol, 1-dodecanol]?
% Reduction ([1]; Dodecanol at 100 μg/mL): 100%; Log Reduction ([1]; Dodecanol at 100 μg/mL): 6.75; CFU Recovered ([1]; Dodecanol at 100 μg/mL): <5 × 10^0 CFU per mL; % Reduction ([2]; Dodecanol at 100 μg/mL): 100%; Log Reduction ([2]; Dodecanol at 100 μg/mL): 7.18; CFU Recovered ([2]; Dodecanol at 100 μg/mL): <5 × 10^0 CFU per mL; % Reduction ([3]; Dodecanol at 100 μg/mL): 100%; Log Reduction ([3]; Dodecanol at 100 μg/mL): 7.04; CFU Recovered ([3]; Dodecanol at 100 μg/mL): <5 × 10^0 CFU per mL; Irritating effects on the mucous membranes [4]: no irritating effects; MIC ([5]; Staphylococcus aureus, S. aureus MRSA, dodecanol alone, read-out: MIC (Minimum Inhibitory Concentration)): 83 µg/mL; MIC of Dodecanol in two-component combination ([5]; combined with 30 μg/mL Glycerol monolaurate, S. aureus MRSA): 40 μg/mL Dodecanol; Concentration of the component at which bactericidal activity is still maintained in the three-component combination ([5]; MRSA): 20 µg/mL; Growth or No Growth ([5]; final concentration 2.53125 μg/mL, S. aureus MRSA): +; Growth or No Growth ([5]; final concentration 5.0625 μg/mL, S. aureus MRSA): +; Growth or No Growth ([5]; final concentration 10.125 μg/mL, S. aureus MRSA): +; Growth or No Growth ([5]; final concentration 20.25 μg/mL, S. aureus MRSA): +; Growth or No Growth ([5]; final concentration 41.5 μg/mL, S. aureus MRSA): +; Growth or No Growth ([5]; final concentration 83 μg/mL, S. aureus MRSA): 0; MIC ([6]; S. aureus VISA, dodecanol alone): 83 µg/mL; Growth or No Growth ([6]; final concentration 2.53125 μg/mL, S. aureus VISA): +; Growth or No Growth ([6]; final concentration 5.0625 μg/mL, S. aureus VISA): +; Growth or No Growth ([6]; final concentration 10.125 μg/mL, S. aureus VISA): +; Growth or No Growth ([6]; final concentration 20.25 μg/mL, S. aureus VISA): +; Growth or No Growth ([6]; final concentration 41.5 μg/mL, S. aureus VISA): +; Growth or No Growth ([6]; final concentration 83 μg/mL, S. aureus VISA): 0; MIC ([7]; Enterococcus faecalis, ATCC 51299 / VRE, E. faecalis VRE, dodecanol alone, read-out: MIC (Minimum Inhibitory Concentration)): 83 µg/mL; Growth or No Growth ([7]; final concentration 2.53125 μg/mL, E. faecalis VRE): +; Growth or No Growth ([7]; final concentration 5.0625 μg/mL, E. faecalis VRE): +; Growth or No Growth ([7]; final concentration 10.125 μg/mL, E. faecalis VRE): +; Growth or No Growth ([7]; final concentration 20.25 μg/mL, E. faecalis VRE): +; Growth or No Growth ([7]; final concentration 41.5 μg/mL, E. faecalis VRE): +; Growth or No Growth ([7]; final concentration 83 μg/mL, E. faecalis VRE): 0; Effective Bactericidal Concentration of Primary Alcohols against Staphylococcus (Staphylococcus): 12.5 Micrograms/mL

Which “Effective Bactericidal Concentration” value (Staphylococcus) does the source give for `CCCCCCCCCCCCCO` [C-13] here?
Its value is over 800 Micrograms/mL.

Which results are given for `CCCCCCCCCCCC(=O)OCC(O)CO` (centres unmarked) [Glycerol Monolaurate, glycerol monolaurate]?
% Reduction [1, 8]: 100%; Log Reduction [1, 8]: 6.75; CFU Recovered [1, 8]: <5 × 10^0 CFU per mL; % Reduction [2, 8]: 100%; Log Reduction [2, 8]: 7.1; CFU Recovered [2, 8]: <5 × 10^0 CFU per mL; % Reduction [3, 8]: 100%; Log Reduction [3, 8]: 7.04; CFU Recovered [3, 8]: <5 × 10^0 CFU per mL; Minimum inhibitory concentration for Staphylococcus (S. aureus): 250 micrograms/mL; MIC (Minimum Inhibitory Concentration) ([5]; S. aureus MRSA, glycerol monolaurate alone): 62.5 micrograms/mL; MIC (Minimum Inhibitory Concentration) ([5]; S. aureus MRSA, glycerol monolaurate alone, listed as Glycerol monolaurate): 62.5 micrograms/mL; MIC ([5]; Staphylococcus aureus, read-out: MIC (Minimum Inhibitory Concentration), S. aureus MRSA, glycerol monolaurate alone): 62.5 µg/mL; MIC of Glycerol monolaurate in two-component combination ([5]; S. aureus MRSA, listed as Glycerol monolaurate): 30 μg/mL Glycerol monolaurate; MIC of Glycerol monolaurate in two-component combination ([5]; S. aureus MRSA, listed as glycerol monolaurate): ~30 µg/mL; Concentration of the component at which bactericidal activity is still maintained in the three-component combination ([5]; MRSA): 15 µg/mL; Growth or No Growth ([5]; final concentration 31.25 micrograms/mL, S. aureus MRSA): +; Growth or No Growth ([5]; final concentration 62.5 micrograms/mL, S. aureus MRSA): 0; Growth or No Growth ([5]; final concentration 125 micrograms/mL, S. aureus MRSA): 0; Growth or No Growth ([5]; final concentration 250 micrograms/mL, S. aureus MRSA): 0; MIC [6]: 62.5 µg/mL; Growth or No Growth ([6]; final concentration 31.25 micrograms/mL, S. aureus VISA): +; Growth or No Growth ([6]; final concentration 62.5 micrograms/mL, S. aureus VISA): 0; Growth or No Growth ([6]; final concentration 125 micrograms/mL, S. aureus VISA): 0; Growth or No Growth ([6]; final concentration 250 micrograms/mL, S. aureus VISA): 0; MIC ([7]; Enterococcus faecalis, ATCC51299, read-out: MIC (Minimum Inhibitory Concentration)): 125 µg/mL; Growth or No Growth ([7]; final concentration 31.25 micrograms/mL, Enterococcus faecalis): +; Growth or No Growth ([7]; final concentration 62.5 micrograms/mL, Enterococcus faecalis): +; Growth or No Growth ([7]; final concentration 125 micrograms/mL, Enterococcus faecalis): 0; Growth or No Growth ([7]; final concentration 250 micrograms/mL, Enterococcus faecalis): 0

For `CCCCCCCCCCO` [C-10], which “Effective Bactericidal Concentration” value (Staphylococcus) is on record?
Its value is 50 Micrograms/mL.

For `CCCCCCCCCCCCC(=O)OCC(O)CO` (centres unmarked) [13 Carbon Mono, Tridecanoyl monoglyceride], which “Minimum inhibitory concentration for Staphylococcus” value (S. aureus) is on record?
Its value is “No Inhibition”.

Which results are given for `O=C(O)c1ccccc1` [Benzoic Acid, benzoic acid]?
Growth or No Growth ([5]; Benzoic Acid 625 μg/mL, S. aureus MRSA, Average CFU/mL 8.9 × 10^6): +; Growth or No Growth ([5]; Benzoic Acid 1,250 μg/mL, S. aureus MRSA, Average CFU/mL 8.9 × 10^6): 0; Growth or No Growth ([5]; Benzoic Acid 2,500 μg/mL, S. aureus MRSA, Average CFU/mL 8.9 × 10^6): 0; Growth or No Growth ([5]; Benzoic Acid 5,000 μg/mL, S. aureus MRSA, Average CFU/mL 8.9 × 10^6): 0; Growth or No Growth ([5]; Benzoic Acid 10,000 μg/mL, S. aureus MRSA, Average CFU/mL 8.9 × 10^6): 0; MIC of Benzoic Acid in combination ([5]; Dodecanol (20 μ/mL) and Glycerol Monolaurate (15 μ/mL) held constant, MRSA): <312.5 µg/mL; MIC ([5]; S. aureus MRSA, Average CFU/mL 8.9 × 10^6, benzoic acid alone): 1250 µg/mL; MIC ([5]; Staphylococcus aureus, S. aureus MRSA, Average CFU/mL 8.9 × 10^6, benzoic acid alone): 1250 µg/mL; Concentration of the component at which bactericidal activity is still maintained in the three-component combination ([5]; MRSA): 312.5 µg/mL

Which “Effective Bactericidal Concentration” value (Staphylococcus) does the source give for `CCCCCCCCCCCO` [C-11] here?
Its value is 25 Micrograms/mL.

With `C/C(=C\C(=O)OCCCCCCCCC(=O)O)C[C@@H]1OC[C@H](C[C@@H]2O[C@H]2[C@@H](C)[C@H](C)O)[C@@H](O)[C@H]1O` [mupirocin] as the compound, how does the “Clinical outcome of prior treatment of MRSA lesions” value (MRSA) read?
Its value is “the MRSA was still present in the patient's sinuses; also recorded: unsuccessfully treated”.
